Test results taken from publication PMC3893112 (Journal of medicinal chemistry, 2013).

Columns and labels:
[1] = target: human μ opioid receptor over-expressed in CHO cells (Homo sapiens, UniProt P35372); test: [35S]GTPγS binding assay, agonist mode, μ; assay type: biochemical
[2] = target: T1, human δ opioid receptor over-expressed in CHO cells (Homo sapiens, UniProt P41143); test: [35S]GTPγS binding assay, agonist mode, δ; assay type: biochemical; settings: for Agonist activity at the δ receptor (in words): [35S]GTPγS
[3] = target: T2, human κ opioid receptor over-expressed in CHO cells (Homo sapiens, UniProt P41145); test: [35S]GTPγS binding assay, agonist mode, κ; assay type: biochemical
[4] = target: T2, human κ opioid receptor over-expressed in CHO cells; test: Inhibition of κ agonist-stimulated [35S]GTPγS binding; assay type: biochemical; settings: for Antagonist κ, U50,488 Ke: vs κ agonist-stimulated [35S]GTPγS binding
[5] = target: human MOR (Homo sapiens, UniProt P35372); test: Competition radioligand binding, [3H]DAMGO; settings: Ki vs Kd of DAMGO
[6] = target: T1, human δ opioid receptor over-expressed in CHO cells; test: Inhibition of DPDPE-stimulated [35S]GTPγS binding; assay type: biochemical; settings: for Antagonist δ, DPDPE Ke: vs DPDPE-stimulated [35S]GTPγS binding

human MOR, sequence (P35372 whole entry): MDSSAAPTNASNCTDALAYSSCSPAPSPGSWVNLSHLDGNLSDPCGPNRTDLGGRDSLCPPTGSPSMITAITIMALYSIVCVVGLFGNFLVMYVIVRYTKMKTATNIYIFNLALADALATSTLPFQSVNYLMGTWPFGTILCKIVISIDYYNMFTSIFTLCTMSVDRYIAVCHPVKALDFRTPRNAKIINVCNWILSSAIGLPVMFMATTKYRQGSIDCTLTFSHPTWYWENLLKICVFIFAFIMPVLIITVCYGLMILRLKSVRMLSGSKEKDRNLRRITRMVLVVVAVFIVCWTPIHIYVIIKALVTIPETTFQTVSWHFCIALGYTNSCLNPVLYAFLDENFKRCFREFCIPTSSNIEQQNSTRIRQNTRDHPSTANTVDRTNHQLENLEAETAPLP
T1 sequence (P41143 whole entry): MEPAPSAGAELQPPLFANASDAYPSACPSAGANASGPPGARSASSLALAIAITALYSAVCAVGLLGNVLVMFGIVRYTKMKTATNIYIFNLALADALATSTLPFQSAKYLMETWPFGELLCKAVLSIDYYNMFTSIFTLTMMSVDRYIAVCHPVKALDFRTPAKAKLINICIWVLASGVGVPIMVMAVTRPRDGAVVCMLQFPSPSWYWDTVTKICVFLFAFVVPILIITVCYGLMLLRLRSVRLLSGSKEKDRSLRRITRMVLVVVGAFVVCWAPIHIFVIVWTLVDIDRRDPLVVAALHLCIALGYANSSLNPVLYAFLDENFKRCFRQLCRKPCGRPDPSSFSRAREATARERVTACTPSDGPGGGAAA
T2 sequence (P41145 whole entry): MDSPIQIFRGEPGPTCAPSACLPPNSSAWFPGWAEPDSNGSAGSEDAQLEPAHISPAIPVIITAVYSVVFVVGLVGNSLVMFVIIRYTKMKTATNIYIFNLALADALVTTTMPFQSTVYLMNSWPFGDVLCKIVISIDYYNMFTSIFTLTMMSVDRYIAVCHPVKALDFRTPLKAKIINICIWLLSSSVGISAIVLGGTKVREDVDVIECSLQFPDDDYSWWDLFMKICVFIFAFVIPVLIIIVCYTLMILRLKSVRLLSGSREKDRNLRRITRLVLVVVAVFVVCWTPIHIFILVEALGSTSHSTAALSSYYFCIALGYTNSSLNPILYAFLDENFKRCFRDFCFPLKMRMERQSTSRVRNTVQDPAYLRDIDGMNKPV
human μ opioid receptor over-expressed in CHO cells, sequence (P35372 whole entry): as the sequence (P35372 whole entry) above

## C[C@@H]1CN(CCCc2ccccc2)[C@@H]2CCC[C@]1(c1cccc(O)c1)C2.Cl [Compound 4, 3-[(1R,4S,5S)-4-Methyl-2-(3-phenylpropyl)-2-azabicyclo[3.3.1]non-5-yl]phenol]
[1]
  EC50: > 5000 nM
[2]
  EC50: > 5000 nM
[3]
  EC50: > 5000 nM

## C[C@@H]1CN(CCCc2ccccc2)[C@H]2C[C@H](N)C[C@]1(c1cccc(O)c1)C2.Cl.Cl [Compound 5a, (−)-5-(3-hydroxyphenyl)-4-methyl-2-(3-phenylpropyl)-2-azabicyclo[3.3.1]nonan-7-amine]
[3]
  EC50: > 5000 nM
[4]
  Kb: 10.1 ± 3 nM
  Antagonist κ, U50,488 Ke: 10.1 nM

## CN[C@H]1C[C@H]2C[C@@](c3cccc(O)c3)(C1)[C@H](C)CN2CCCc1ccccc1.Cl.Cl [Compound 5b, 5-(3-Hydroxyphenyl)-4-methyl-7-methylamino-2-(3-phenylprop-1-yl)-2-azabicyclo[3.3.1]nononane]
[3]
  EC50: > 5000 nM
[4]
  Kb: 43.8 ± 8 nM
  Antagonist κ, U50,488 Ke: 43.8 nM
[5]
  Affinity for MOR compared with DAMGO: higher affinity for MOR than DAMGO

## CCN[C@H]1C[C@H]2C[C@@](c3cccc(O)c3)(C1)[C@H](C)CN2CCCc1ccccc1.Cl.Cl [Compound 5c, 7-Ethylamino-5-(3-hydroxyphenyl)-4-methyl-2-(3-phenlylprop-1-yl)-2-azabicyclo[3.3.1]nononane]
[2]
  EC50: > 5000 nM
  Agonist activity at the δ receptor (in words): complete loss of agonist activity
[3]
  EC50: > 5000 nM
[6]
  Kb: 230 ± 93 nM
  Antagonist δ, DPDPE Ke: 230 nM
[4]
  Kb: 60.8 ± 19 nM
  Antagonist κ, U50,488 Ke: 60.8 nM

## CCCN[C@H]1C[C@H]2C[C@@](c3cccc(O)c3)(C1)[C@H](C)CN2CCCc1ccccc1.Cl.Cl [Compound 5d, 5-(3-Hydroxyphenyl)-4-methyl-2-(3-phenylprop-1-yl)-7-propylamino-2-azabicyclo[3.3.1]nononane]
[2]
  EC50: > 5000 nM
  Agonist activity at the δ receptor (in words): no agonist activity
[6]
  Kb: 69.4 ± 16 nM
  Antagonist δ, DPDPE Ke: 69.4 nM

## C[C@@H]1CN(CCCc2ccccc2)[C@H]2C[C@H](NCC3CC3)C[C@]1(c1cccc(O)c1)C2.Cl.Cl [Compound 5e, 7-(N-Cyclopropylmethylamino)-5-(3-hydroxyphenyl)-4-methyl-2-(3-phenylprop-1-yl)-2-azabicyclo[3.3.1]nononane]
[2]
  EC50: > 5000 nM
[3]
  EC50: > 5000 nM

## C[C@@H]1CN(CCCc2ccccc2)[C@H]2C[C@H](N(C)C)C[C@]1(c1cccc(O)c1)C2.Cl.Cl [Compound 5f, 7-Dimethylamino-5-(3-hydroxyphenyl)-4-methyl-2-(3-phenylprop-1-yl)-2-azabicyclo[3.3.1]nononane]
[3]
  EC50: > 5000 nM
[4]
  Kb: 176 ± 50 nM
  Antagonist κ, U50,488 Ke: 176 nM
[5]
  Affinity for MOR compared with DAMGO: higher affinity for MOR than DAMGO

## CCN(C)[C@H]1C[C@H]2C[C@@](c3cccc(O)c3)(C1)[C@H](C)CN2CCCc1ccccc1 [Compound 5g, 7-(N-Ethylmethylamino)-5-(3-hydroxyphenyl)-4-methyl-2-(3-phenylprop-1-yl)-2 azabicyclo[3.3.1]nononane]
[2]
  EC50: > 5000 nM
[3]
  EC50: > 5000 nM
[6]
  Kb: > 5000 nM
[4]
  Kb: 93 ± 29 nM

## C[C@@H]1CN(CCCc2ccccc2)[C@H]2C[C@H](N(C)CC3CC3)C[C@]1(c1cccc(O)c1)C2.Cl.Cl [Compound 5h, 7-(N-Cyclopropylmethylmethylamino)-5-(3-hydroxyphenyl)-4-methyl-2-(3-phenylprop-1-yl)-2-azabicyclo[3.3.1]nononane]
[5]
  Affinity for MOR compared with DAMGO: higher affinity for MOR than DAMGO

## C[C@H]1CN(CCCc2ccccc2)[C@@H]2C[C@@H](N)C[C@@]1(c1cccc(O)c1)C2 [Compound 6, (1S,4R,5R,7S)-7-aminomorphan]
[1]
  IC50: 20.6 nM
[2]
  EC50: > 5000 nM
[3]
  EC50: > 5000 nM
[6]
  Kb: 25.2 ± 8 nM
  Antagonist δ, DPDPE Ke: 25.2 nM
[4]
  Kb: 21.7 ± 7 nM
  Antagonist κ, U50,488 Ke: 21.7 nM
